Assay [1] deals with perception of 1-pentanethiol. Kind of assay: Split-nostril testing with 1-pentanethiol (physical vs dichorhinic mixtures). It counts as in vivo, human. The note with it: for sex comparison of the effect on perceived intensity of 1-pentanethiol: males vs females, citronellal as physical mixture, pentanol as dichorhinic mixture; for perceived pleasantness of mixtures with 1-pentanethiol: isointense amounts mixed in air (N=29). On the procedure: In all experiments each subject was presented with odor samples in a unique random order. Subjects were instructed to take a single inhalation of each sample. Samples were separated by rest periods of at least 50 sec to minimize adaptation. Target odorants (1-pentanethiol or guaiacol) were sampled thrice by each subject prior to the initiation of an experiment. Dilutions of odorants (0.1-, 0.01-, 0.001-, and 0.0001-fold) were prepared in 10 ml of mineral oil in 250 ml brown Boston round bottles. To mimic the conditions of split-nostril testing, each dilution bottle was paired with a bottle containing 10 ml of mineral oil, with both bottles connected to the same Teflon nozzle. Control samples consisted of pairs of bottles containing 10 ml of mineral oil connected to a Teflon nozzle. Subjects simultaneously sniffed from two nozzles, either an odor dilution through one nostril and a control through the other nostril, or controls through both nostrils. Each subject (n=7-9) sniffed a unique random order of dilutions, rating intensity on a scale of 1-10. Dilutions that gave average intensities in the range of 4-5 were selected. Subjects simultaneously sniffed from two pairs of bottles, one pair per nostril. Treatment samples included no odorant controls and target odorants (1-pentanethiol or guaiacol) presented alone or mixed in air with masking odorants. Subjects experienced every sample four times, balanced so that pairings of odors were given twice per nostril, with the exception of the no odor control (10 ml of mineral oil in each bottle), which was presented twice. Subjects rated intensity on a gLMS scale (0-100) via a graphical user interface on a computer, followed by rating pleasantness on a linear scale of −10 to +10. Redjade software was used to produce unique random orders for each subject and to collect intensity and pleasantness ratings. Exclusion criteria were ratings of 0 on >25% of treatments (to exclude hyposmic subjects) and a Pearson correlation coefficient of <35% on test-retest across all treatments. To discriminate peripheral versus CNS odor interaction effects a split-nostril experiment was performed where odorants delivered simultaneously to different nostrils (dichorhinic mixture) can only affect perception via central nervous system (CNS) circuits versus odorants delivered together to the same nostril (physical mixture) where they can affect perception via both peripheral effects and central effects (FIG. 3A). Furthermore, by mixing the odorants in air there is an elimination of reduced volatilization of 1-pentanethiol as a cause of perception of reduced intensity.

The test system of assay [2] is perception of guaiacol. Kind of assay: Preliminary screen of odorants with guaiacol (physical mixtures in air). In kind it is in vivo, human. On the procedure: (§1) In all experiments each subject was presented with odor samples in a unique random order. Subjects were instructed to take a single inhalation of each sample. Samples were separated by rest periods of at least 50 sec to minimize adaptation. Target odorants (1-pentanethiol or guaiacol) were sampled thrice by each subject prior to the initiation of an experiment.
(§2) Dilutions of odorants (0.1-, 0.01-, 0.001-, and 0.0001-fold) were prepared in 10 ml of mineral oil in 250 ml brown Boston round bottles. To mimic the conditions of split-nostril testing, each dilution bottle was paired with a bottle containing 10 ml of mineral oil, with both bottles connected to the same Teflon nozzle. Control samples consisted of pairs of bottles containing 10 ml of mineral oil connected to a Teflon nozzle. Subjects simultaneously sniffed from two nozzles, either an odor dilution through one nostril and a control through the other nostril, or controls through both nostrils. Each subject (n=7-9) sniffed a unique random order of dilutions, rating intensity on a scale of 1-10. Dilutions that gave average intensities in the range of 4-5 were selected.
In preliminary screening only physical mixtures were tested. Air mixing was achieved by attaching pairs of 250 ml brown Boston round bottles, one containing the candidate antagonist odorant and the other the target odorant, to a single nozzle. Controls consisted of pairs of bottles, each containing 10 ml of mineral oil, connected to the same Teflon nozzle. Subjects simultaneously sniffed from two nozzles, either a physical mixture through one nostril and the control through the other nostril, or controls through both nostrils. Each sample was repeated so that each physical mixture was sniffed through the left and right nostrils. Each subject sniffed a unique random order of the samples, rating intensity on a scale of 1-10 using Google forms.
(§3) Like 1-pentanethiol, guaiacol is a key odorant in cigarette smoke and is one of the most important components of a simple mimic of cigarette smoke odor. […] A split-nostril experiment was performed to test these hypotheses and determine whether effects were peripheral or central. […] It was confirmed that effects of the physical and dichorhinic mixtures differed by comparing within-subject responses (FIG. 5B).

The test system of assay [3] is perception of guaiacol. Kind of assay: Split-nostril testing with guaiacol (physical vs dichorhinic mixtures). In kind it is in vivo, human. The note with it: for perceived pleasantness of mixtures with guaiacol: compared with guaiacol alone; for effect on perceived intensity of guaiacol: physical mixture (same nostril) vs dichorhinic mixture. On the procedure:
as §1, §2
Subjects simultaneously sniffed from two pairs of bottles, one pair per nostril. Treatment samples included no odorant controls and target odorants (1-pentanethiol or guaiacol) presented alone or mixed in air with masking odorants. Subjects experienced every sample four times, balanced so that pairings of odors were given twice per nostril, with the exception of the no odor control (10 ml of mineral oil in each bottle), which was presented twice. Subjects rated intensity on a gLMS scale (0-100) via a graphical user interface on a computer, followed by rating pleasantness on a linear scale of −10 to +10. Redjade software was used to produce unique random orders for each subject and to collect intensity and pleasantness ratings. Exclusion criteria were ratings of 0 on >25% of treatments (to exclude hyposmic subjects) and a Pearson correlation coefficient of <35% on test-retest across all treatments.
as §3

Assay [4] has as its system perception of 1-pentanethiol. Kind of assay: Preliminary screening for masking of 1-pentanethiol (solution mixtures on cotton balls, intensity and pleasantness ratings). In kind it is in vivo. Conditions: solution mixture screen, both odorants in the same cotton ball, human subjects (n=24). The text has this:
In all experiments each subject was presented with odor samples in a unique random order. Subjects were instructed to take a single inhalation of each sample. Samples were separated by rest periods of at least 50 sec to minimize adaptation. Target odorants (1-pentanethiol or guaiacol) were sampled thrice by each subject prior to the initiation of an experiment. Dilutions (0.1-, 0.01-, 0.001-, and 0.0001-fold) of candidate masking odorants and the key cigarette smoke odorant 1-pentanethiol were prepared in dimethyl sulfoxide. Subjects (5 male and 7 female) sniffed 0.4 ml volumes absorbed in cotton balls from 0.8 ml brown glass vials and rated intensity on a scale of 1-10. Dilutions that gave average intensities in the range of 4-5 were selected for screening tests in which subjects rated intensity on a scale of 1-100 using a paper form. Subjects also rated whether the overall odor of each sample was pleasant or unpleasant (a forced-choice test). Seventeen (17) odorants commonly used as general masking odors or previously tested as cigarette additives designed to improve the perceived pleasantness of cigarette smoke were screened. […] While efficient for screening odorants, the mixing approach used (soaking of both odorants into the same cotton ball) fails to implicate mechanism because it may allow three potential causes for perception of reduced intensity of a target odor: CNS effects where circuit interactions lead to perception of reduced intensity, peripheral effects such as receptor antagonism, and (potentially) reduced volatilization of 1-pentanethiol. Further experiments were required to determine which of these causes explain the effect of citronellal.

The mark [5] stands for this setting: dichorhinic mixture, odorants delivered to different nostrils.
Where [6] appears, read: physical mixture delivered to the same nostril, mixed in air.
The mark [7] stands for this setting: listed as Methyl-2-methylbutyrate.

These results are taken from patent US20240315315A1, “COMPOSITION AND METHOD FOR SUPPRESSING PERCEPTION OF SMOKE OR VAPOR ODOR AND FOR SMOKING OR VAPING CESSATION” (University of Kentucky Research Foundation, priority 2023, published 2024).

SMILES strings stand for the structures. “Also recorded” adds a separate entry of the source. Read-outs that look alike come from different tables or passages of the source.

Regarding `CCCCCS` [1-pentanethiol], the “perceived pleasantness of the odorant alone” value in assay [1] (split-nostril experiment) is “moderately unpleasant”.
Regarding `C=CC(C)(O)CCC=C(C)C` (centres unmarked) [Linalool, reference compound], in assay [2], the “interaction with guaiacol (perceived intensity)” value (shortened to “interaction with guaiacol”) was “three largest interactions”. Besides, the “perceived pleasantness of mixtures with guaiacol” value in assay [3] was “no effect of perceived pleasantness”.
On the same counts, the results for `CCCC(O)CCC1C(C)CCCC1(C)C` (centres unmarked) [Norlimbanol, reference compound] are “three largest interactions” and “no effect of perceived pleasantness”.
Take `CC(C)=CCCC(C)CC=O` (centres unmarked) [citronellal]: the “effect on perceived intensity of 1-pentanethiol” value is recorded as “most effective at reducing the perceived intensity of 1-pentanethiol; also recorded: strongest effect” in assay [4]; “most effective masking odor” in assay [4] (listed as Citronellal); “did not affect the perceived intensity of 1-pentanethiol” in assay [1] (setting [5]); “reduced the perceived intensity of 1-pentanethiol; also recorded: suppress perception” in assay [1] (setting [6]); “decreases the perceived intensity of 1-pentanethiol only when delivered as a physical mixture” in assay [1] (physical mixture delivered to the same nostril, mixed in air, listed as Citronellal). Further, the “within-subject comparison of perceived 1-pentanethiol, physical vs dichorhinic mixtures” value in assay [1] (female participants) was “showed no difference”; in assay [1] (male participants), “nearly all males perceived less 1-pentanethiol in physical mixtures”. Also, the “sex comparison of the effect on perceived intensity of 1-pentanethiol” value in assay [1] is on record as “stronger in males than in females”. For the same molecule, the “perceived pleasantness of mixtures with 1-pentanethiol” value in assay [1] (split-nostril experiment) is recorded as “improved pleasantness; also recorded: neither pleasant nor unpleasant on average; also recorded: alleviated”.
As to `CCOC(=O)C(C)CC` (centres unmarked) [ethyl-2-methylbutyrate, Ethyl 2-methylbutyrate], the “interaction with guaiacol” value in assay [2] is listed as “promising effects”.
As for `CCC(C)C(=O)OC` (centres unmarked) [methyl-2-methylbutyrate, methyl 2-methylbutyrate], the entries for the “interaction with guaiacol” value in assay [2] and in assay [2] (setting [7]) were “promising effects” and “three largest interactions”, respectively. The “perceived pleasantness of mixtures with guaiacol” value in assay [3] is on record as “no effect of perceived pleasantness”. In assay [3] (male participants (N=6)), the “effect on perceived intensity of guaiacol in a physical mixture” value was “significant decrease”. For the same molecule, the “effect on perceived intensity of guaiacol” value in assay [3] is “suppressed perception of guaiacol, but only when applied via the same nostril as a physical mixture; also recorded: suppress perception”; in assay [3] (setting [7]), “decreases the perceived intensity of guaiacol”.
As to `CCCCCO` [pentanol], the “effect on perceived intensity of 1-pentanethiol” value is “no effect on perception of 1-pentanethiol” in assay [4]; “increased the perceived intensity of 1-pentanethiol; also recorded: increases the perceived intensity of 1-pentanethiol only when delivered a dichorhinic mixture” in assay [1] (setting [5]); “additive effect mediated centrally” in assay [1] (dichorhinic mixture, odorants delivered to different nostrils, listed as 1-pentanol); “did not result in any reduction in the perceived intensity of 1-pentanethiol” in assay [1] (setting [6]). Besides, in assay [1] (females (N=19) vs males (N=10)), the “sex comparison of perceived pleasantness of mixtures with 1-pentanethiol” value is given as “less pleasant than did males; also recorded: more unpleasant than did males”. Further, in assay [1], the “sex comparison of the effect on perceived intensity of 1-pentanethiol” value is given as “apparent in both sexes, but appeared slightly stronger in females”. In assay [1] (split-nostril experiment (N=29)), the “perceived pleasantness, dichorhinic vs physical mixtures with 1-pentanethiol” value is “less pleasant than physical mixtures; also recorded: more unpleasant than physical mixtures”. Also, the “perceived pleasantness of mixtures with 1-pentanethiol” value in assay [1] (split-nostril experiment) is reported as “did not improve perceived pleasantness; also recorded: little affected”.
